Laboratory results as given in PubChem BioAssay AID1963862 (Molecular Pharmacology Branch, DTP, NCI, 2024).
pIC50: −log10 of the molar value.

System: KRAS patient-derived spheroids with HUVEC/MSC, viability
Experiment: Anticancer human tumor 941728-121-R-J1-PDC patient-derived lung adenocarcinoma cell line growth inhibition [KRAS2]
Conditions: for pIC50: curve of first compound; for viability, T/C: stronger effect = lower value; active = viability on the fitted dose curve at most 10% of control; inactive = the rest
Outline: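 KRAS-mutant tumor cells were grown as spheroids with HUVEC endothelial cells and human MSCs as stroma. Targeted agents were tested alone and with KRAS pathway inhibitors. Doses started at or near clinical Cmax, or 10 microM, descending half-log.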

[1] = second compound 0.1 µM, first compound 0.000316 µM
[2] = second compound 0.1 µM, first compound 0.001 µM
[3] = second compound 0.1 µM, first compound 0.00316 µM
[4] = second compound 0.1 µM, first compound 0.01 µM
[5] = second compound 0.1 µM, first compound 0.0316 µM
[6] = second compound 0.316 µM, first compound 0.000316 µM
[7] = second compound 0.316 µM, first compound 0.001 µM
[8] = second compound 0.316 µM, first compound 0.00316 µM
[9] = second compound 0.316 µM, first compound 0.01 µM
[10] = second compound 0.316 µM, first compound 0.0316 µM
[11] = second compound 1 µM, first compound 0.000316 µM
[12] = second compound 1 µM, first compound 0.001 µM
[13] = second compound 1 µM, first compound 0.00316 µM
[14] = second compound 1 µM, first compound 0.01 µM
[15] = second compound 1 µM, first compound 0.0316 µM
[16] = second compound 3.16 µM, first compound 0.000316 µM
[17] = second compound 3.16 µM, first compound 0.001 µM
[18] = second compound 3.16 µM, first compound 0.00316 µM
[19] = second compound 3.16 µM, first compound 0.01 µM
[20] = second compound 3.16 µM, first compound 0.0316 µM
[21] = second compound 10 µM, first compound 0.000316 µM
[22] = second compound 10 µM, first compound 0.001 µM
[23] = second compound 10 µM, first compound 0.00316 µM
[24] = second compound 10 µM, first compound 0.01 µM
[25] = second compound 10 µM, first compound 0.0316 µM
[26] = second compound 0.1 µM, first compound 0.1 µM
[27] = second compound 0.1 µM, first compound 0.316 µM
[28] = second compound 0.1 µM, first compound 1 µM
[29] = second compound 0.1 µM, first compound 3.16 µM
[30] = second compound 0.316 µM, first compound 0.1 µM
[31] = second compound 0.316 µM, first compound 0.316 µM
[32] = second compound 0.316 µM, first compound 1 µM
[33] = second compound 0.316 µM, first compound 3.16 µM
[34] = second compound 1 µM, first compound 0.1 µM
[35] = second compound 1 µM, first compound 0.316 µM
[36] = second compound 1 µM, first compound 1 µM
[37] = second compound 1 µM, first compound 3.16 µM
[38] = second compound 3.16 µM, first compound 0.1 µM
[39] = second compound 3.16 µM, first compound 0.316 µM
[40] = second compound 3.16 µM, first compound 1 µM
[41] = second compound 3.16 µM, first compound 3.16 µM
[42] = second compound 10 µM, first compound 0.1 µM
[43] = second compound 10 µM, first compound 0.316 µM
[44] = second compound 10 µM, first compound 1 µM
[45] = second compound 10 µM, first compound 3.16 µM
[46] = second compound 0.1 µM, first compound 10 µM
[47] = second compound 0.316 µM, first compound 10 µM
[48] = second compound 1 µM, first compound 10 µM
[49] = second compound 3.16 µM, first compound 10 µM
[50] = second compound 10 µM, first compound 10 µM
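Also: spheroids exposed to agents for seven days before readout.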

CC(=O)Nc1cccc(-n2c(=O)n(C3CC3)c(=O)c3c(Nc4ccc(I)cc4F)n(C)c(=O)c(C)c32)c1 + CC1OCC2(CCN(c3cnc(Sc4ccnc(N)c4Cl)c(N)n3)CC2)C1N
> 10.00: pIC50 (second compound 0.1 µM) | pIC50 (second compound 0.316 µM) | pIC50 (second compound 1 µM) | pIC50 (second compound 3.16 µM) | pIC50 (second compound 10 µM)
inactive: viability, T/C (second compound 0.1 µM, first compound 0.0001 µM) 47.1% | viability, T/C [1] 40.5% | viability, T/C [2] 40.2% | viability, T/C [3] 39.1% | viability, T/C [4] 36.4% | viability, T/C [5] 27.9% | viability, T/C (second compound 0.316 µM, first compound 0.0001 µM) 38.1% | viability, T/C [6] 39.2% | viability, T/C [7] 34.3% | viability, T/C [8] 30.9% | viability, T/C [9] 26.4% | viability, T/C [10] 23.1% | viability, T/C (second compound 1 µM, first compound 0.0001 µM) 32.4% | viability, T/C [11] 31.1% | viability, T/C [12] 24.8% | viability, T/C [13] 22% | viability, T/C [14] 21.4% | viability, T/C [15] 18.2% | viability, T/C (second compound 3.16 µM, first compound 0.0001 µM) 21.6% | viability, T/C [16] 17.2% | viability, T/C [17] 14.5% | viability, T/C [18] 15.1% | viability, T/C [19] 14.5% | viability, T/C [20] 13.6% | viability, T/C (second compound 10 µM, first compound 0.0001 µM) 15.2% | viability, T/C [21] 12.9% | viability, T/C [22] 11.8% | viability, T/C [23] 10.4% | viability, T/C [24] 12.7% | viability, T/C [25] 10.6%

CC(=O)OC12COC1CC(O)C1(C)C(=O)C(O)C3=C(C)C(OC(=O)C(O)C(NC(=O)OC(C)(C)C)c4ccccc4)CC(O)(C(OC(=O)c4ccccc4)C21)C3(C)C (stereo not given) + CC1OCC2(CCN(c3cnc(Sc4ccnc(N)c4Cl)c(N)n3)CC2)C1N
> 8.00: pIC50 (second compound 0.1 µM) | pIC50 (second compound 0.316 µM) | pIC50 (second compound 1 µM) | pIC50 (second compound 3.16 µM) | pIC50 (second compound 10 µM)
inactive: viability, T/C [4] 42.3% | viability, T/C [5] 34.6% | viability, T/C [26] 33.9% | viability, T/C [27] 39.2% | viability, T/C [28] 39.5% | viability, T/C [29] 41.6% | viability, T/C [9] 37.1% | viability, T/C [10] 34.4% | viability, T/C [30] 30.2% | viability, T/C [31] 32.1% | viability, T/C [32] 37.2% | viability, T/C [33] 38.9% | viability, T/C [14] 49.8% | viability, T/C [15] 52.4% | viability, T/C [34] 44% | viability, T/C [35] 45.9% | viability, T/C [36] 53.4% | viability, T/C [37] 54% | viability, T/C [19] 24.4% | viability, T/C [20] 23.3% | viability, T/C [38] 21.5% | viability, T/C [39] 27.3% | viability, T/C [40] 29.8% | viability, T/C [41] 27.4% | viability, T/C [24] 26.5% | viability, T/C [25] 25.6% | viability, T/C [42] 23.1% | viability, T/C [43] 24.8% | viability, T/C [44] 30.1% | viability, T/C [45] 30.2%

CN(C)C/C=C/C(=O)Nc1cc2c(Nc3ccc(F)c(Cl)c3)ncnc2cc1O[C@H]1CCOC1 + CC1OCC2(CCN(c3cnc(Sc4ccnc(N)c4Cl)c(N)n3)CC2)C1N
> 9.50: pIC50 (second compound 0.1 µM) | pIC50 (second compound 0.316 µM) | pIC50 (second compound 3.16 µM)
inactive: viability, T/C [1] 38.3% | viability, T/C [2] 41.9% | viability, T/C [3] 45.5% | viability, T/C [4] 44.5% | viability, T/C [5] 41.4% | viability, T/C [26] 43.3% | viability, T/C [6] 33.7% | viability, T/C [7] 35.2% | viability, T/C [8] 43.1% | viability, T/C [9] 42.3% | viability, T/C [10] 45.8% | viability, T/C [30] 41.2% | viability, T/C [11] 70.1% | viability, T/C [12] 52.4% | viability, T/C [13] 63.1% | viability, T/C [14] 70.6% | viability, T/C [15] 58.4% | viability, T/C [34] 51.9% | viability, T/C [16] 29.7% | viability, T/C [17] 28.3% | viability, T/C [18] 30.2% | viability, T/C [19] 31.6% | viability, T/C [20] 31.3% | viability, T/C [38] 36.7% | viability, T/C [21] 54.6% | viability, T/C [22] 45% | viability, T/C [23] 30.6% | viability, T/C [24] 52.5% | viability, T/C [25] 31.3% | viability, T/C [42] 31%
9.28: pIC50 (second compound 10 µM)
< 7.00: pIC50 (second compound 1 µM)

COC(=O)c1ccc2c(C(=Nc3ccc(N(C)C(=O)CN4CCN(C)CC4)cc3)c3ccccc3)c(O)[nH]c2c1 + CC1OCC2(CCN(c3cnc(Sc4ccnc(N)c4Cl)c(N)n3)CC2)C1N
> 7.50: pIC50 (second compound 0.1 µM) | pIC50 (second compound 0.316 µM) | pIC50 (second compound 1 µM) | pIC50 (second compound 3.16 µM) | pIC50 (second compound 10 µM)
active: viability, T/C [49] 10.7% | viability, T/C [44] 8.94% | viability, T/C [45] 3.3% | viability, T/C [50] 1.71%
inactive: viability, T/C [5] 39.2% | viability, T/C [26] 35.5% | viability, T/C [27] 36.7% | viability, T/C [28] 37.2% | viability, T/C [29] 36.6% | viability, T/C [46] 38.2% | viability, T/C [10] 35.3% | viability, T/C [30] 32.1% | viability, T/C [31] 28.8% | viability, T/C [32] 28.8% | viability, T/C [33] 24.6% | viability, T/C [47] 25.6% | viability, T/C [15] 34.4% | viability, T/C [34] 25.5% | viability, T/C [35] 18.5% | viability, T/C [36] 20.4% | viability, T/C [37] 15.4% | viability, T/C [48] 19.5% | viability, T/C [20] 29.1% | viability, T/C [38] 23.2% | viability, T/C [39] 17% | viability, T/C [40] 12.7% | viability, T/C [41] 10.5% | viability, T/C [25] 21.2% | viability, T/C [42] 16% | viability, T/C [43] 9.59%

COc1cc(Nc2ncc3c(n2)-c2ccc(Cl)cc2C(c2c(F)cccc2OC)=NC3)ccc1C(=O)O + CC1OCC2(CCN(c3cnc(Sc4ccnc(N)c4Cl)c(N)n3)CC2)C1N
6.86: pIC50 (second compound 0.1 µM)
> 7.50: pIC50 (second compound 0.316 µM) | pIC50 (second compound 1 µM) | pIC50 (second compound 3.16 µM) | pIC50 (second compound 10 µM)
inactive: viability, T/C [5] 53.1% | viability, T/C [26] 47.6% | viability, T/C [27] 48.5% | viability, T/C [28] 48.5% | viability, T/C [29] 50.3% | viability, T/C [46] 41.6% | viability, T/C [10] 42.3% | viability, T/C [30] 41.9% | viability, T/C [31] 40.2% | viability, T/C [32] 39.2% | viability, T/C [33] 36.6% | viability, T/C [47] 35.3% | viability, T/C [15] 29.8% | viability, T/C [34] 33.4% | viability, T/C [35] 36.6% | viability, T/C [36] 34.6% | viability, T/C [37] 28% | viability, T/C [48] 23.9% | viability, T/C [20] 23.7% | viability, T/C [38] 25.4% | viability, T/C [39] 26.9% | viability, T/C [40] 26.6% | viability, T/C [41] 13% | viability, T/C [49] 14.5% | viability, T/C [25] 16% | viability, T/C [42] 15.4% | viability, T/C [43] 13.4% | viability, T/C [44] 13.6% | viability, T/C [45] 12.4% | viability, T/C [50] 9.18%

O=C(c1cc(Cc2n[nH]c(=O)c3ccccc23)ccc1F)N1CCN(C(=O)C2CC2)CC1 + CC1OCC2(CCN(c3cnc(Sc4ccnc(N)c4Cl)c(N)n3)CC2)C1N
inactive: viability, T/C [5] 50.3% | viability, T/C [26] 47.7% | viability, T/C [27] 48.3% | viability, T/C [28] 53.1% | viability, T/C [29] 62.1% | viability, T/C [46] 69.7% | viability, T/C [10] 41.9% | viability, T/C [30] 45.4% | viability, T/C [31] 52.8% | viability, T/C [32] 53.7% | viability, T/C [33] 57.8% | viability, T/C [47] 60.7% | viability, T/C [15] 65.1% | viability, T/C [34] 45% | viability, T/C [35] 45.7% | viability, T/C [36] 41.6% | viability, T/C [37] 49% | viability, T/C [48] 58.6% | viability, T/C [20] 31.9% | viability, T/C [38] 36.3% | viability, T/C [39] 35.3% | viability, T/C [40] 38.2% | viability, T/C [41] 41.3% | viability, T/C [49] 45.7% | viability, T/C [25] 26.1% | viability, T/C [42] 22.3% | viability, T/C [43] 29.6% | viability, T/C [44] 28.5% | viability, T/C [45] 35.1% | viability, T/C [50] 29.3%
> 7.50: pIC50 (second compound 0.1 µM) | pIC50 (second compound 0.316 µM) | pIC50 (second compound 3.16 µM) | pIC50 (second compound 10 µM)
7.06: pIC50 (second compound 1 µM)
